Measurements as given in patent publication US20240207264A1, “PHARMACEUTICAL COMPOSITIONS COMPRISING INHIBITORS OF THE ANDROGEN RECEPTOR AND USES THEREOF” (ESSA PHARMA INC., priority 2021, published 2024).

Tests used:
PC-3 = PC-3 prostate cancer xenograft model; assay type: in vivo; settings: PC-3 (non functional AR), intact male mice, 30 mg/kg, Solution, qd28
Protocol: Compound A's activity was measured in a variety of castrate-sensitive and castrate-resistant prostate cancer (CRPC) xenograft models (Table 32).

[1] = tested on: serum prostate specific antigen (PSA); test: Phase I clinical study, serum PSA; assay type: in vivo, human; settings: 200 mg/day
Protocol: Phase I clinical research study of Compound A is studied as a treatment for patients with prostate cancer. All patients in the study receives Compound A at a once daily oral dose of 200 mg, 400 mg, 600 mg, 800 mg, or 1000 mg. Compound A in this study is provided as an SDD composition with HPMCAS-H. One cycle of treatment is 28 days of dosing.
The primary efficacy variable for Part 1b of the study is the proportion of patients with a decline from baseline in prostate specific antigen (PSA) blood concentrations of ≥50% at any time point during daily dosing with Compound A,
The study is still on-going with other dose levels.

## CC(C)(c1ccc(OCc2ccnc(NS(C)(=O)=O)n2)cc1)c1cc(Cl)c(OCCCl)c(C#N)c1 [Compound A, N-(4-((4-(2-(3-chloro-4-(2-chloroethoxy)-5-cyanophenyl)propan-2-yl)phenoxy)methyl)pyrimidin-2-yl)methanesulfonamide]
PC-3
  TGI (Tumor Growth Inhibition): 0%
[1]; one subject, after 3 cycles (12 weeks)
  Serum PSA level decline: > 50%
[1]; two other subjects
  Serum PSA levels: showed increase
